Consider 5 molecules from patent publication US20120035356A1, “Hydroxycarboxylic Acids and Salts” (priority 2006, published 2012).

The conditions of series [1]: cited from earlier work.
The nature of series [2]: Corrosion test NACE TM0169-95 modified by PNS, steel coupons in 3% NaCl solution. Also on record: Percent Effectiveness: scale not given: direction of the effect not stated beside the values. The settings on record: Table 1; for Corrosion rate MPY: 72 h; for Percent Effectiveness: NaCl control 100%, water 0%, lower is better, 30% or less acceptable (PNS); for Corrected corrosion rate MPY^1: distilled water MPY subtracted. Here is the method: Corrosion tests were performed according to the National Association of Corrosion Engineers (NACE) Standard TM0169-95 modified by the Pacific Northwest Snowfighters (PNS) (NACE TM0169-95).
The test procedure was modified to use 30 mL of a 3% solution of inhibitor per square inch of total coupon surface area. Stamped and numbered steel TSI coupons which met the ASTM F436 Type 1 requirement with a Rockwell hardness of C 38-45 were used for each corrosion test. Approximate coupon dimensions are 1.37 in. outer diameter, 0.60 in. inner diameter, and 0.10 in. thickness with a density of 7.85 grams per cubic centimeter. Coupons were placed in a sealed container on a rock tumbler with a non-abrasive cleanser for 30 minutes to remove surface grease and impurities. Coupons were wiped with acetone to remove any additional grease, rinsed with deionized water, and then acid etched with an 18.5% HCl solution for approximately 3 minutes. The coupons were rinsed with tap water, rinsed with deionized water, patted dry and placed in chloroform for 15 minutes. The coupons were removed from chloroform and allowed to air dry in a ventilated hood for 1 hour. Each coupon was then weighed to the nearest 0.1 mg. at least two times to ensure a consistent weight.
Distilled water was used to prepare each solution and control standard. Sodium chloride was used as the salt standard. A 3% solution of NaCl (EMD, analyzed reagent grade, 9.6 g) in distilled water (310.4 g) was prepared as a salt standard (w/v). Each test solution was prepared with 3% NaCl, 310.4 g distilled water, and a corrosion inhibitor. Two NaCl salt solutions containing each inhibitor were prepared at 3% and 1.5% inhibitor concentration (by weight of salt, 288 mg and 144 mg, respectively). Approximately 300 mL of each solution in distilled water was transferred to a clean 500 mL Erlenmeyer flask equipped with a rubber stopper which had been drilled to allow a thin line attached to a plastic rod to run through it. The pH of each solution was measured and recorded. Aqueous 5% sodium hydroxide was carefully added (1-2 drops) until a basic pH was established for each test solution. The pH of the NaCl and H2O control solutions was not altered. Three coupons were attached to a plastic bar suspended within each flask through the stopper hole. A timed device raised and lowered the test coupons so they were immersed in the test solution for 10 minutes of each hour for a 72 hour period. Tests were conducted at room temperature.
After the 72 h. test period, the coupons were quickly removed from solution, rinsed under tap water and vigorously rubbed to remove any surface corrosion material. The coupons were then placed in shallow evaporating dishes containing a cleaning solution of concentrated hydrochloric acid, stannous chloride (50 g/liter), and antimony chloride (20 g/liter) for 15 minutes. The coupons were removed from the acid solution, rinsed vigorously under tap water, and returned to the cleaning solution for an additional 15 minutes. The coupons were again removed from the acid solution, rinsed under tap water, rinsed under deionized water, patted dry, and placed in a vessel containing chloroform for 10 minutes. The coupons were removed from the chloroform and allowed to air dry under a ventilated hood for 1 hour before being weighed to the nearest 0.1 mg. Each coupon was weighed twice to ensure a true final weight. Corrosion rate in mils per year (MPY) was calculated from the measured weight loss of each coupon using the following equation: […]
The corrosion value for the control solution of distilled H2O was also calculated. The MPY value of the distilled water was subtracted from the MPY value of each sample solution containing 3% NaCl to provide a corrected MPY value, which is noted as MPY′.

The nature of another series: Water solubility. It is filed as physicochemical. The note with it: at the higher pH.
Where [3] appears, read: 1.5 weight % inhibitor in 3% NaCl, room temperature, >pH 8 except sodium D-gluconate (pH 6.1).
Where [4] appears, read: 1.5 weight % inhibitor in 3% NaCl.
Setting [5] is: 3.0 weight % inhibitor in 3% NaCl, >pH 8 except sodium D-gluconate (pH 6.1) and commercial liquid gluconate product (pH 3.2).
[6] abbreviates: 3.0 weight % inhibitor in 3% NaCl.

The structures appear in SMILES notation. Like-named read-outs stand apart in the source and are kept apart here.

Turning to `O=C(O)[C@@H](O)[C@@H](O)[C@H](O)[C@@H](O)C(=O)[O-].[K+]` [Sample III, monopotassium D-glucarate], the water solubility result in series [1] is on record as “about 10%”. The “Water reduction (% of control)” value is, setting by setting: (Type A (water reducing) trial, admixture dose 2.4-2.5 oz/cwt) 5.04 % of control; (Type D (water reducing/set retarding) trial, admixture dose 2.9-5.0 oz/cwt) 5.04 % of control. Also, the “Compressive Strength (% of control)” value by setting is: (Type A trial, 7 days) “(125%) % of control”; (Type D trial, 7 days) “(117%) % of control”; (Type D trial, 28 days) “(118%) % of control”.

Take `O=C([O-])[C@@H](O)[C@@H](O)[C@H](O)[C@@H](O)C(=O)[O-].[Ca+2]` [calcium D-glucarate]: the “water solubility (in words)” value in series [1] was “very insoluble in water”.

In the case of `O=C([O-])[C@@H](O)[C@@H](O)[C@H](O)[C@@H](O)C(=O)[O-].[K+].[K+]` [dipotassium D-glucarate hydrate, dipotassium D-glucarate], in series [1], the “water solubility (in words)” value is reported as “readily soluble in water”.

For the molecule `O=C([O-])[C@H](O)[C@@H](O)[C@H](O)[C@H](O)CO.[Na+]` [sodium D-gluconate, reference compound], the “Corrosion rate MPY” value in series [2] (setting [3]) is recorded as 24.596 MPY; in series [2] (setting [5]) it was 22.786 MPY. Also, the “Percent Effectiveness” value in series [2] (setting [4]) is listed as 36.98%; in series [2] (setting [6]) it was 33.45%; in series [2] (3.0 weight % inhibitor in 3% NaCl, listed as gluconate) it was greater than 30%. In addition, the “Corrected corrosion rate MPY^1” value in series [2] (setting [4]) turned out to be 20.313 MPY; in series [2] (setting [6]), 18.503 MPY. The water solubility entry in the series “Water solubility” was “ca. 60%”.

As for `O=C([O-])[C@@H](O)[C@@H](O)[C@H](O)[C@@H](O)C(=O)[O-].[K+].[Na+]` [sodium potassium D-glucarate], in series [1], the “water solubility (in words)” value is recorded as “readily soluble in water”. Moreover, the “Corrosion rate MPY” value was 23.726 MPY in series [2] (setting [3]) and 20.939 MPY in series [2] (setting [5]). Further, the “Percent Effectiveness” value is 35.28% in series [2] (setting [4]); 29.84% in series [2] (setting [6]); roughly 30% in series [2] (3.0 weight % inhibitor in 3% NaCl, listed as glucarate). In addition, the “Corrected corrosion rate MPY^1” value in series [2] (setting [4]) was 19.443 MPY; in series [2] (setting [6]), 16.656 MPY. In addition, the water solubility result in the series “Water solubility” is given as “ca. 70%”.
